For five compounds, IC50 results are on record in ChEMBL document CHEMBL5727525, “4,5-substituted picolinamide and picolinonitrile metabotropic glutamate receptor 2 negative allosteric modulators” (2020).

Some results are limits rather than exact numbers.

A short description of this experiment: Ca2+ Flux Assay: GÎ±15 HEK293 cells stably expressing rat mGlu2 were plated in black-walled, clear-bottomed, poly-D-lysine coated 384-well plates in 20 Î¼L of assay medium (DMEM containing 10% dialyzed FBS, 20 mM HEPES, and 1 mM sodium pyruvate) at a density of 12K cells/well. The cells were grown overnight at 37° C. in the presence of 5% CO2. The next day, medium was removed and the cells incubated with 20 Î¼L of 2.3 Î¼M Fluo-4, AM prepared as a 2.3 mM stock in DMSO and mixed in a 1:1 ratio with 10% (w/v) pluronic acid F-127 and diluted in assay buffer (Hank's balanced salt solution, 20 mM HEPES, and 2.5 mM probenecid) for 45 minutes at 37° C. Dye was removed, 20 Î¼L of assay buffer was added, and the plate was incubated for 5 minutes at room temperature.
A word on the IC50: it is the midpoint of a concentration-inhibition curve. On to `C[C@@H]1CN(CCOc2cnc(C(N)=O)cc2-c2ccc(F)cc2)C[C@H](C)O1`, for which the 50% inhibitory concentration (IC50) is over 10 µM.
Take `C[C@@H]1CN(CCOc2cnc(C#N)cc2-c2ccc(F)cc2)C[C@H](C)O1`: the IC50 is over 30 µM.
For the compound `C[C@@H]1CN(CCCOc2cnc(C(N)=O)cc2-c2ccc(F)cc2)C[C@H](C)O1`, the IC50 is over 10 µM.
Turning to `Cn1cc(-c2cc(C(N)=O)ncc2OCc2ccc(C(F)(F)F)nc2)cn1`, the IC50 was over 10 µM.
Consider `NC(=O)c1cc(-c2ccc(F)cc2)c(OCCOc2ccccc2F)cn1`, for which the IC50 came to 2.01 µM.
